“And” between values parts separate entries of the source, which are not always exact repeats. Equal entries are not always repeated. Where two headings read alike, the source gives them in different places.
How the values were obtained:
Format in all cases: in vivo, human
lymphocytes = experiment: PK/PD safety modelling: dose-nadir relationship of blood cell counts, lymphocytes; details: (% CV) in table
Text: (§1) The obtained exposure parameters (Cmax and AUC) and PK profiles from individual patients and the respective haematological laboratory data were collected over the treatment duration and analysed regarding the relationship to peripheral blood cell counts (lymphocytes, neutrophils, platelets).
(§2) The nadir was defined as the lowest blood cell count observed after the first administration. The nadir was extracted irrespective of the treatment duration, thus, the analysis data set included patients who received only one dose and patients who received multiple treatment cycles with tinostamustine. The baseline blood cell count, which was the count before the first administration, was included in the analysis as the cell count at dose, Cmax or AUC equal to 0. Thus, it was assumed that the baseline blood cell count was the effect level without treatment with tinostamustine. With an exploratory analysis all observations each predictor-nadir relationship was fitted with a least-squares method in R. The dose-nadir relationship was further investigated with a non-linear mixed effects approach. The advantage of the non-linear mixed effects approach compared to the exploratory analysis was that different external and patient factors could be investigated at the same time and the between patient variability can be described. […]

[1] = PK assessment: plasma tinostamustine and metabolites M2 and M8, non-compartmental analysis and population PK model; details: for AUC / Cmax / Tmax: day one, Mean (SD)
Protocol: Plasma samples were collected to determine the concentrations of tinostamustine and its metabolites (labelled M2 and M8) by a method fully validated according to the relevant guidelines. The PK profiles of tinostamustine in plasma were assessed in each patient in the escalation stage of the study, in cycle 1 only.
Patients of all cohorts and over all dose levels were sampled according to the following schedule: 0.5 hours prior to dose administration, and at 15, 30 and 45 minutes and 1, 1.25, 1.50, 2, 3, 8, 24, 48 and 72 hours from the start of tinostamustine infusion. Plasma samples were collected according to the Laboratory Manual for the determination of tinostamustine and metabolites M2 and M8 concentrations using a method fully validated according to the relevant guidelines.
A compartmental population PK analysis of tinostamustine was conducted to characterize its concentration-time profiles and its dependency on patient factors. For the analysis, the 24 hours plasma concentrations of tinostamustine at day one from 36 patients was used from whom the data was available. The concentration-time profiles were best described with a two-compartmental model with first order clearance from the central compartment.

platelets = experiment: PK/PD safety modelling: dose-nadir relationship of blood cell counts, platelets; details: (% CV) in table
Text: as §1, §2

[2] = human, plasma, intravenous, 20 mg/m^2, 20 mg/m^2, infusion 60 minutes
[3] = human, plasma, intravenous, 40 mg/m^2, 40 mg/m^2, infusion 60 minutes
[4] = human, plasma, intravenous, 60 mg/m^2, 60 mg/m^2, infusion 30 minutes
[5] = human, plasma, intravenous, 60 mg/m^2, 60 mg/m^2, infusion 60 minutes
[6] = human, plasma, intravenous, 80 mg/m^2, 80 mg/m^2, infusion 45 minutes
[7] = human, plasma, intravenous, 80 mg/m^2, 80 mg/m^2, infusion 60 minutes
[8] = human, plasma, intravenous, 100 mg/m^2, 100 mg/m^2, infusion 60 minutes
[9] = human, plasma, intravenous, 120 mg/m^2, 120 mg/m^2, infusion 60 minutes

In the case of `Cn1c(CCCCCCC(=O)NO)nc2cc(N(CCCl)CCCl)ccc21` [tinostamustine], the “EC50 (dose required to reduce the cell count by 50%)” value (lymphocytes) is reported as 28.3 mg/m^2 and 28.3 (40%) mg/m^2, the “dose linearity of PK” value ([1]; dose range 20-120 mg/m^2 over 60 minutes infusion time) is reported as “linear” and the “dose linearity of PK” value ([1]; dose range 20 to 120 mg/m^2, infusion times of 30 to 60 minutes) is reported as “dose-linear”. For the same compound, the AUC [1, 2] was 193 ng·h/mL, the Cmax [1, 2] was 241 ng/mL and the Tmax [1, 2] was 48 min. For the same compound, the AUC [1, 3] was 932 ng·h/mL, the Cmax [1, 3] was 1160 ng/mL and the Tmax [1, 3] was 24 min. It also gave an AUC [1, 4] of 627 ng·h/mL, a Cmax [1, 4] of 1720 ng/mL and a Tmax [1, 4] of 18 min. The AUC [1, 5] was 592 ng·h/mL, the Cmax [1, 5] was 640 ng/mL and the Tmax [1, 5] was 60 min. For the same compound, the AUC [1, 6] was 794 ng·h/mL, the Cmax [1, 6] was 1280 ng/mL and the Tmax [1, 6] was 24 min. The AUC [1, 7] was 902 ng·h/mL, the Cmax [1, 7] was 1060 ng/mL and the Tmax [1, 7] was 48 min. It also gave an AUC [1, 8] of 1660 ng·h/mL, a Cmax [1, 8] of 1960 ng/mL and a Tmax [1, 8] of 42 min. For the same compound, the AUC [1, 9] was 1640 ng·h/mL, the Cmax [1, 9] was 1770 ng/mL and the Tmax [1, 9] was 48 min. The half-life ([1]; human, plasma, intravenous, population PK, two-compartmental model, 36 patients, read-out: B half-life (converted)) was 216 min, the Vd ([1]; human, plasma, intravenous, population PK, two-compartmental model, 36 patients, read-out: Central volume of distribution) was 20.6 L and the half-life ([1]; human, plasma, intravenous, population PK, two-compartmental model, 36 patients, read-out: α half-life) was 27 min. The “Peripheral volume of distribution” value ([1]; population PK, two-compartmental model, 36 patients) was 11.5 L, the “time to maximum concentrations” value ([1]; shorter infusions) was “around 30 minutes” and the “EC50 (dose required to reduce the cell count by 50%)” value (platelets) was 55.5 mg/m^2 and 55.5 (72%) mg/m^2.
